Test system: Caco-2 monolayer bidirectional permeability, LC-MS/MS
Assay: Inhibitors of Cruzain: Efflux Ratio Profiling
Settings: stronger effect = lower value
From the text: Chagas Disease is a neglected tropical disease that affects over 16 million people in Latin America. The cysteine protease cruzain is essential for the survival Trypanosoma cruzi, the parasitic agent responsible for Chagas disease. Potential intervention for T. cruzi includes the inhibition of cruzain. This bioassay will summarize the ongoing development of small molecule cruzain inhbitiors. Currently, a screen of ~200k compounds and through extensive follow-up work a probe was identified. To further characterize the probe, it was tested in in vitro ADME assays. This bioassays provides profiling data on Caco-2 cell permeability of leads compounds developed for the HPGD project. This in vitro model is often predictive of in vivo efflux of the compound by measuring the ratio of transport in and out the plasma membrane of the Caco2-cell line. NIH Chemical Genomics Center [NCGC] NIH Molecular Libraries Probe Production Centers Network [MLPCN] MLSCN Grant: DA024891-01 PI Name: Dr. Brian Shoichet; University of California, San Francisco
1. Buffer Preparation: Prepare 1M HEPES: add 23.83g HEPES to 100ml of 0.85% NaCl Prepare HBSS+ buffer: add 12.8ml of 1M HEPES in 0.85% NaCl to 500ml HBSS buffer. 2. […] The T0, LY and T90, LY plates are read by FlexStation 3 at excitation of 485 nm and emission of 535 nm to determine LY permeability. […]

`Cc1ccc(OCCn2c(CCNC(=O)C3CCCCC3)nc3ccccc32)cc1` was tested, and the efflux ratio was 1.1.

Source: PubChem BioAssay AID504759 (National Center for Advancing Translational Sciences (NCATS), 2011)
